Data reported in US11306064B2, “Benzothia(di)azepine compounds and their use as bile acid modulators” (Albireo AB, priority 2018, dated 2022).
pIC50: −log10 of the molar value.

What was measured:
HepaRG cells = test: HepaRG-based assay: 3H-taurocholic acid uptake in differentiated HepaRG cells; type: cell-based; details: Homo sapiens, HepaRG, 0.3 μM 3H-taurocholic acid and 7.5 μM cold taurocholic acid, 30 minutes
Description: HepaRG-Based Assay Protocol
A cryopreserved vial of differentiated HepaRG cells (Biopredic International HPR116080) was thawed in HepaRG Thawing/Plating/General Purpose Medium (Biopredic International ADD670C) supplemented with 200 mM Glutamax (Gibco 35050061) following the protocol provided by Biopredic International. 70,000 cells per well were seeded in 96-wells plate (Corning CLS3809) in 100 μL of HepaRG Thawing/Plating/General Purpose Medium supplemented with 200 mM Glutamax and incubated at 37° C. in 5% CO2 for 24 hours. Post incubation, the seeding media was replaced by HepaRG Maintenance/Metabolism Medium (Biopredic International ADD620C) and incubated for 6 days, with fresh HepaRG Maintenance/Metabolism Medium replenishment every 48 hours. After 7 days incubation post seeding, incubation media was decanted from the wells and cells were washed two times with 250 μL of William's E Basal Media (Gibco 12551032). After decanting William's E Basal Media each time, plates were tapped against paper towel to ensure maximum removal of residual media.
Incubation mix was prepared by adding test inhibitor dilutions (3-fold serial dilution in DMSO (Sigma D2650)) in William's E media (basal) containing 0.3 μM 3H-taurocholic acid (ARC ART-1368) and 7.5 μM cold taurocholic acid (Sigma T4009) (maintaining 0.2% final DMSO concentration). 50 μl of incubation mix containing test inhibitors was then added to the wells (in duplicate) and the plates were incubated for 30 minutes in 5% CO2 incubator at 37° C. After incubation, the reaction was stopped by keeping the plates on ice water mix for 2-3 minutes and then the incubation mix was aspirated completely from the wells. The wells were washed two times with 250 μL of chilled unlabelled 1 mM taurocholic acid dissolved in HEPES (Gibco 15630080)-buffered (10 mM) HBSS (Gibco 14175079) (pH 7.4). The plates were tapped against a paper towel after every wash to ensure maximum removal of blocking buffer.
(§1) 100 μL of MicroScint-20 (PerkinElmer 6013621) was added to the wells and kept overnight at room temperature before reading the plates in TopCount NXT™ Microplate Scintillation and Luminescence Counter from PerkinElmer under 3H Test protocol (set at 120 seconds reading time per well, with normal plate orientation).
(§2) Preparation of Test Compound Dilutions
(§3) All test compounds were provided in powder form at room temperature. 10 mM DMSO stocks of the test compounds were prepared, aliquoted and stored at −20° C. From the 10 mM DMSO stock of the compounds, a 3-fold serial dilution in DMSO was prepared to get a total of 10 dilutions of the test compounds. 0.5 μL of this dilution in DMSO was added to 250 μL of FBS-free basal media containing 3H-taurocholic acid and cold taurocholic acid to prepare the incubation mixture.

Human LBAT = target: T1, Human LBAT (Homo sapiens, UniProt Q14973); test: LBAT (h/m) assay: 3H-taurocholic acid uptake in human LBAT-overexpressing cells; type: cell-based; details: 0.3 μM 3H-taurocholic acid and 7.5 μM cold taurocholic acid, 20 minutes, read-out: hLBAT IC50
T1 construct: expressed in transfected cells; kept under Geneticin selection
T1 sequence (Q14973 1-349): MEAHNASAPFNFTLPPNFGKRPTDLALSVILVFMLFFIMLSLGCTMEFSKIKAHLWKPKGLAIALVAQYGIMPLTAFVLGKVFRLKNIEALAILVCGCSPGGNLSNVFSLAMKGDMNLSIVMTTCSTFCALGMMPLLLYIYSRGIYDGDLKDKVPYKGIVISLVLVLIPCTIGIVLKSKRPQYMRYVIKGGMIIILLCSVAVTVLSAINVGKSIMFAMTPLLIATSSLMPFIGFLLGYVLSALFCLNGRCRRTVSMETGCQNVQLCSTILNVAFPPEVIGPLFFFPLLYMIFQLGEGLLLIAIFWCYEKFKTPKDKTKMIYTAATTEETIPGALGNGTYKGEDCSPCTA
Description: LBAT (h/m) Assay Protocol
20,000 cells (Human or Mouse LBAT-overexpressing cells) were seeded in 96-wells plate (Corning CLS3809) in 100 μL MEM-alpha medium (Gibco 12571-063) supplemented with 10% FBS (Gibco 10438026) containing Geneticin (Gibco 10131-027) (1 mg/mL) and incubated at 37° C. in 5% CO2 for 24 hours. After incubation, media was decanted from the wells and cells were washed two times with 300 μL of basal MEM-alpha medium (FBS-free). After decanting basal MEM-alpha medium each time, plates were tapped against paper towel to ensure maximum removal of residual media. For human LBAT, incubation mix was prepared by adding test inhibitor dilutions (3-fold serial dilution in DMSO (Sigma D2650), 10 points) in MEM-alpha (without FBS) containing 0.3 μM 3H-taurocholic acid (ARC ART-1368) and 7.5 μM cold taurocholic acid (Sigma T4009) (maintaining 0.2% final DMSO concentration). For mouse LBAT, incubation mix was prepared by adding test inhibitor dilutions (3-fold serial dilution in DMSO, 10 points) in MEM-alpha (without FBS) containing 0.3 μM 3H-taurocholic acid and 25 μM cold taurocholic acid maintaining 0.2% final DMSO concentration).
50 μL of incubation mix containing test inhibitors was then added to the wells (in duplicate) and the plates were incubated for 20 minutes in a CO2 incubator at 37° C. After incubation, the reaction was stopped by keeping the plates on ice water mix for 2-3 minutes and then the incubation mix was aspirated completely from the wells. The wells were washed two times with 250 μL of chilled unlabelled 1 mM taurocholic acid dissolved in HEPES (Gibco 15630080)-buffered (10 mM) HBSS (Gibco 14175079) (pH 7.4). The plates were tapped against a paper towel after every wash to ensure maximum removal of blocking buffer.
as §1, §2, §3

| SMILES | pIC50 (HepaRG cells) | pIC50 (Human LBAT) |
| --- | --- | --- |
| CCCC[C@]1(CC)CN(c2ccccc2)c2cc(SC)c(O/C=C/C(=O)O)cc2S(=O)(=O)N1C (single isomer, unassigned) [Example 90] | 5.85 | 7.31 |
| CCCCC1(CCCC)CN(c2ccc(NCc3ccccc3)cc2)c2cc(SC)c(O/C=C/C(=O)O)cc2S(=O)(=O)C1 [Example 22, (E)-3-((5-(4-(benzylamino)phenyl)-3,3-dibutyl-7-(methylthio)-1,1-dioxido-2,3,4,5-tetrahydro-1,5-benzothiazepin-8-yl)oxy)acrylic Acid] | 5.67 | 6.46 |
| CCCCC1(CC)CN(c2ccc(NC(=O)OC(C)(C)C)cc2)c2cc(Br)c(O/C=C/C(=O)O)cc2S(=O)(=O)C1 (stereo not drawn) [Example 23, (E)-3-((7-bromo-5-(4-((tert-butoxycarbonyl)amino)phenyl)-3-butyl-3-ethyl-1,1-dioxido-2,3,4,5-tetrahydro-1,5-benzothiazepin-8-yl)oxy)acrylic Acid] | 5.92 | 7.00 |
| CCCCOC(=O)Nc1ccc(N2CC(CCCC)(CCCC)CS(=O)(=O)c3cc(O/C=C/C(=O)O)c(SC)cc32)cc1 [Example 29, (E)-3-((5-(4-((butoxycarbonyl)amino)phenyl)-3,3-dibutyl-7-(methylthio)-1,1-dioxido-2,3,4,5-tetrahydro-1,5-benzothiazepin-8-yl)oxy)acrylic Acid] | 6.18 | 6.69 |
| CCCCC1(CCCC)CN(c2ccc(NC(=O)C(C)C)cc2)c2cc(SC)c(O/C=C/C(=O)O)cc2S(=O)(=O)C1 [Example 33, (E)-3-((3,3-dibutyl-5-(4-isobutyramidophenyl)-7-(methylthio)-1,1-dioxido-2,3,4,5-tetrahydro-1,5-benzothiazepin-8-yl)oxy)acrylic Acid] | 6.16 | 6.67 |
| CCCCC1(CCCC)CN(c2ccc(NC(=O)C3CCCC3)cc2)c2cc(SC)c(O/C=C(\F)C(=O)O)cc2S(=O)(=O)C1 [Example 35, (Z)-3-((3,3-dibutyl-5-(4-(cyclopentanecarboxamido)phenyl)-7-(methylthio)-1,1-dioxido-2,3,4,5-tetrahydro-1,5-benzothiazepin-8-yl)oxy)-2-fluoroacrylic Acid] | 6.23 | 7.18 |
| CCCCC1(CCCC)CN(c2ccc(NC(=O)C3CC3)cc2)c2cc(SC)c(O/C=C(\F)C(=O)O)cc2S(=O)(=O)C1 [Example 36, (Z)-3-((3,3-dibutyl-5-(4-(cyclopropanecarboxamido)phenyl)-7-(methylthio)-1,1-dioxido-2,3,4,5-tetrahydro-1,5-benzothiazepin-8-yl)oxy)-2-fluoroacrylic Acid] | 6.06 | 7.41 |

Stronger by pIC50 (HepaRG cells), values ahead:

| pIC50 (HepaRG cells) | pIC50 (Human LBAT) | SMILES |
| --- | --- | --- |
| 6.47 | 6.97 | CCCCC1(CCCC)CN(c2ccc(NC(=O)CC(C)(C)C)cc2)c2cc(SC)c(O/C=C/C(=O)O)cc2S(=O)(=O)C1 [Example 30, (E)-3-((3,3-dibutyl-5-(4-(3,3-dimethylbutanamido)phenyl)-7-(methylthio)-1,1-dioxido-2,3,4,5-tetrahydro-1,5-benzothiazepin-8-yl)oxy)acrylic Acid] |
| 6.51 | 7.77 | CCCCC1(CCCC)CN(c2ccc(NC(=O)C(C)C)cc2)c2cc(SC)c(O/C=C(\F)C(=O)O)cc2S(=O)(=O)C1 [Example 31, (Z)-3-((3,3-dibutyl-5-(4-isobutyramidophenyl)-7-(methylthio)-1,1-dioxido-2,3,4,5-tetrahydro-1,5-benzothiazepin-8-yl)oxy)-2-fluoroacrylic Acid] |
| 6.33 | 7.12 | CCCCC1(CC)CN(c2ccc(NC(=O)C(C)(C)C)cc2)c2cc(SC)c(O/C=C/C(=O)O)cc2S(=O)(=O)C1 (stereo not drawn) [Example 34, (E)-3-((3-butyl-3-ethyl-7-(methylthio)-1,1-dioxido-5-(4-pivalamidophenyl)-2,3,4,5-tetrahydro-1,5-benzothiazepin-8-yl)oxy)acrylic Acid] |
| 6.34 | 6.91 | CCCCC1(CC)CN(c2ccc(NC(=O)C3CCCC3)cc2)c2cc(SC)c(O/C=C/C(=O)O)cc2S(=O)(=O)C1 (stereo not drawn) [Example 38, (E)-3-((3-butyl-5-(4-(cyclopentanecarboxamido)phenyl)-3-ethyl-7-(methylthio)-1,1-dioxido-2,3,4,5-tetrahydro-1,5-benzothiazepin-8-yl)oxy)acrylic Acid] |
| 6.72 | 7.08 | CCC1(CC)CN(c2ccc(NC(=O)C(C)(C)C)cc2)c2cc(SC)c(O/C=C(\F)C(=O)O)cc2S(=O)(=O)C1 [Example 52, (Z)-3-((3,3-diethyl-7-(methylthio)-1,1-dioxido-5-(4-pivalamidophenyl)-2,3,4,5-tetrahydro-1,5-benzothiazepin-8-yl)oxy)-2-fluoroacrylic Acid] |
